The record followed here is patent US20230414607A1, “METHODS OF TREATMENT” (BOW RIVER LLC, priority 2017, published 2023).

The first data set can be described thus: AUC and Cmax target safe levels of CYP3A4 substrate drugs (Table 1). Particulars: component of ivacaftor/tezacaftor. An excerpt: In various embodiments, the “Target safe levels” are non-limiting examples of the upper limit of fold change or percent of baseline where in some embodiments the benefits of treating the patient for the condition or disease for which the CYP3A4 substrate drug is indicated outweigh the risks associated with the effects of a drug-drug interaction. […] For purposes of the present methods, the blood plasma levels measured during co-administration of the CYP3A4 substrate drug with […] may be used to estimate the posaconazole DDI decay curve, e.g., using equation 1.
As for `CC(C)(C)c1cc(C(C)(C)C)c(NC(=O)c2c[nH]c3ccccc3c2=O)cc1O` [ivacaftor], the “AUC target safe level, Fold change” value is 2.95; fold; the “AUC target safe level, Percent of baseline” value is recorded as 295%;; the “Cmax target safe level, Fold change” value is 2.47; fold; the “Cmax target safe level, Percent of baseline” value is given as 247%;.

Staying with this data set, now noted: human.
Turning to `CN(C(=O)c1ccccc1)[C@@H]1C[C@H]2O[C@@](C)([C@@H]1O)n1c3ccccc3c3c4c(c5c6ccccc6n2c5c31)C(=O)NC4` [CGP62221], the “AUC target safe level, Fold change” value is given as 3.5 fold and the “AUC target safe level, Percent of baseline” value is reported as 350%.

Turning to `COc1cc2c(cc1OC)[C@H]1C[C@@H](O)[C@H](CC(C)C)CN1CC2` [[+]-α-HTBZ], the “AUC target safe level, Fold change” value is listed as 2.1 fold; the “AUC target safe level, Percent of baseline” value is on record as 210%; the “Cmax target safe level, Fold change” value is reported as 1.7 fold; the “Cmax target safe level, Percent of baseline” value was 170%.

With `CNC(=O)c1ccc(N2C(=S)N(c3cnc(C#N)c(C(F)(F)F)c3)C(=O)C23CCC3)cc1F` [apalutamide], the “AUC target safe level, Fold change” value is 1.24 fold; the “AUC target safe level, Percent of baseline” value stood at 124%; the “Cmax target safe level, Fold change” value was determined as 1.38 fold; the “Cmax target safe level, Percent of baseline” value came out at 138%.

Consider `O=c1ccc2ccc(OCCCCN3CCN(c4cccc5sccc45)CC3)cc2[nH]1` [brexpiprazole], for which the “AUC target safe level, Fold change” value turned out to be 2 fold; the “AUC target safe level, Percent of baseline” value is given as 200%; the “Cmax target safe level, Fold change” value is 1.2 fold; the “Cmax target safe level, Percent of baseline” value is on record as 120%.

As for `CN(C)C(=O)N[C@H]1CC[C@H](CCN2CCN(c3cccc(Cl)c3Cl)CC2)CC1` [cariprazine], the “AUC target safe level, Percent of baseline” value worked out at 400%.

`COc1c(OCCCN2CCOCC2)ccc2c1N=C(NC(=O)c1cnc(N)nc1)N1CCN=C21` [copanlisib]: the “AUC target safe level, Fold change” value stood at 1.53 fold; the “AUC target safe level, Percent of baseline” value worked out at 153%; the “Cmax target safe level, Fold change” value was found to be 1.03 fold; the “Cmax target safe level, Percent of baseline” value worked out at 103%.

On to `CC(=O)OCC(=O)[C@@]12N=C(C)O[C@@H]1C[C@H]1[C@@H]3CCC4=CC(=O)C=C[C@]4(C)[C@H]3[C@@H](O)C[C@@]12C` [deflazacort], for which the “AUC target safe level, Fold change” value is recorded as 3 fold and the “AUC target safe level, Percent of baseline” value is listed as 300%.

Consider `C[C@H](Nc1ncnc2[nH]cnc12)c1cc2cccc(Cl)c2c(=O)n1-c1ccccc1` [duvelisib], for which the “AUC target safe level, Fold change” value turned out to be 2 fold; the “AUC target safe level, Percent of baseline” value was determined as 200%; the “Cmax target safe level, Fold change” value is reported as 1.7 fold; the “Cmax target safe level, Percent of baseline” value turned out to be 170%.

On to `COc1cccc(-c2c(C)n(Cc3c(F)cccc3C(F)(F)F)c(=O)n(C[C@H](NCCCC(=O)O)c3ccccc3)c2=O)c1F` [elagolix sodium], for which the “AUC target safe level, Fold change” value turned out to be 2.2 fold; the “AUC target safe level, Percent of baseline” value stood at 220%; the “Cmax target safe level, Fold change” value came to 1.77 fold; the “Cmax target safe level, Percent of baseline” value was 177%.

For `COc1cc(OC)cc(N(CCNC(C)C)c2ccc3ncc(-c4cnn(C)c4)nc3c2)c1` [erdafitinib], the “AUC target safe level, Fold change” value was determined as 1.34 fold; the “AUC target safe level, Percent of baseline” value was 134%; the “Cmax target safe level, Fold change” value stood at 1.05 fold; the “Cmax target safe level, Percent of baseline” value was 105%.

`CCc1nc(C(N)=O)c(Nc2ccc(N3CCC(N4CCN(C)CC4)CC3)c(OC)c2)nc1NC1CCOCC1` [gilteritinib]: the “AUC target safe level, Fold change” value came out at 2.2 fold; the “AUC target safe level, Percent of baseline” value is listed as 220%; the “Cmax target safe level, Fold change” value is 1.20 fold; the “Cmax target safe level, Percent of baseline” value is reported as 120%.

Turning to `CN1CC[C@@H](NC(=O)Nc2ccc(C#N)cc2)C[C@@H]1c1nc2ccccc2[nH]1` [glasdegib], the “AUC target safe level, Fold change” value is 2.4 fold; the “AUC target safe level, Percent of baseline” value was 240%; the “Cmax target safe level, Fold change” value is on record as 1.4 fold; the “Cmax target safe level, Percent of baseline” value is recorded as 140%.

In the case of `C=CC(=O)N1CCC[C@@H](n2nc(-c3ccc(Oc4ccccc4)cc3)c3c(N)ncnc32)C1` [ibrutinib], the “AUC target safe level, Percent of baseline” value amounted to 300%.

Consider `CO[C@@H]1[C@H](N(C)C(=O)c2ccccc2)C[C@H]2O[C@]1(C)n1c3ccccc3c3c4c(c5c6ccccc6n2c5c31)C(=O)NC4` [midostaurin], for which the “AUC target safe level, Fold change” value came out at 10.4 fold and the “AUC target safe level, Percent of baseline” value is reported as 1040%.

With `Cc1[nH]c2ccccc2c1CCNCc1ccc(/C=C/C(=O)NO)cc1` [panobinostat], the “AUC target safe level, Fold change” value was determined as 1.73 fold; the “AUC target safe level, Percent of baseline” value worked out at 173%; the “Cmax target safe level, Fold change” value is reported as 1.62 fold; the “Cmax target safe level, Percent of baseline” value was found to be 162%.

`CC(C)COc1ccc(CNC(=O)N(Cc2ccc(F)cc2)C2CCN(C)CC2)cc1` [pimavanserin]: the “AUC target safe level, Fold change” value came to 3 fold; the “AUC target safe level, Percent of baseline” value worked out at 300%; the “Cmax target safe level, Fold change” value is 1.5 fold; the “Cmax target safe level, Percent of baseline” value was determined as 150%.

As to `N#CC[C@H](C1CCCC1)n1cc(-c2ncnc3[nH]ccc23)cn1` [ruxolitinib], the “AUC target safe level, Fold change” value was found to be 1.91 fold; the “AUC target safe level, Percent of baseline” value is 191%; the “Cmax target safe level, Fold change” value is 1.33 fold; the “Cmax target safe level, Percent of baseline” value was determined as 133%.

For the molecule `CC(C)(CO)c1cc2cc(NC(=O)C3(c4ccc5c(c4)OC(F)(F)O5)CC3)c(F)cc2n1C[C@@H](O)CO` [tezacaftor], the “AUC target safe level, Fold change” value was found to be 2.0 fold and the “AUC target safe level, Percent of baseline” value worked out at 200%.

Consider `C[C@@H]1CCN(C(=O)CC#N)C[C@@H]1N(C)c1ncnc2[nH]ccc12` [tofacitinib], for which the “AUC target safe level, Percent of baseline” value is 175%.

Still in this data set, the particulars now being: upper limit where benefits outweigh risks; approximation, can vary by about ±25%.
As for `O=C1CCc2ccc(OCCCCN3CCN(c4cccc(Cl)c4Cl)CC3)cc2N1` [aripiprazole], the “AUC target safe level, Fold change” value was found to be 1.7 fold; the “AUC target safe level, Percent of baseline” value was found to be 170%; the “Cmax target safe level, Fold change” value was determined as 1.4 fold; the “Cmax target safe level, Percent of baseline” value stood at 140%.

Turning to `CC(C)(C)c1cc(C(C)(C)C)c(NC(=O)c2c[nH]c3ccccc3c2=O)cc1O` [ivacaftor], the “AUC target safe level, Fold change” value was 3 fold; the “AUC target safe level, Percent of baseline” value turned out to be 300%; the “Cmax target safe level, Fold change” value is listed as 2.7 fold; the “Cmax target safe level, Percent of baseline” value worked out at 270%.

As for `CC(C)(NC(=O)C1=C(O)[C@@H]2Oc3c(O)ccc4c3[C@@]23CCN(CC2CC2)[C@H](C4)[C@]3(O)C1)c1nc(-c2ccccc2)no1` [naldemedine], the “AUC target safe level, Fold change” value came out at 1.9 fold; the “AUC target safe level, Percent of baseline” value was determined as 190%; the “Cmax target safe level, Fold change” value worked out at 1.38 fold; the “Cmax target safe level, Percent of baseline” value is recorded as 138%.

For `CCN(CC)CCNC(=O)c1c(C)[nH]c(/C=C2\C(=O)Nc3ccc(F)cc32)c1C` [sunitinib], the “AUC target safe level, Fold change” value is recorded as 1.51 fold; the “AUC target safe level, Percent of baseline” value came out at 151%; the “Cmax target safe level, Fold change” value is 1.49 fold; the “Cmax target safe level, Percent of baseline” value was determined as 149%.
